Source: patent US11091501B2, “Heterocyclic compounds as RSV inhibitors” (Enanta Pharmaceuticals, Inc., priority 2017, dated 2021)
Like-named read-outs stand apart in the source and are kept apart here.

Test system: Human RSV-A (“Long” strain)
Test: RSV in vitro cytoprotection assay (CPE, ATPlite) in HEp-2 cells
Type: cell-based
Details: human respiratory syncytial virus
Method in brief: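 HEp-2 cells (8,000/well) given 2-fold serial compound dilutions in duplicate, then infected with sucrose-stabilised RSV-A Long stock. After 4 days, cell viability read by ATPlite luminescence, with a parallel uninfected plate for cytotoxicity. EC50 binned A<0.01 μM, B 0.01-0.05 μM, C>0.05 μM.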

[1] = 96 h, HEp-2 cells, 4-day incubation, ATPlite readout, read-out: Human RSV-A (“Long” strain) EC50

Structure (SMILES) | EC50 [1] [nM] | EC50 (HEp-2, control compound of the RSV assay, read-out: EC50) [nM]
Cc1cnc(N2CC3(CCOCC3)C2)c(C(=O)Nc2ccc(C(=O)N3CCc4cc(-c5ccccn5)sc4-c4ccc(F)cc43)cc2)c1 [Example 168] | < 10 | 
O=C(Nc1ncccc1C(F)(F)F)c1cc2c(s1)-c1ccc(F)cc1N(C(=O)c1ccc(NC(=O)c3cc4c(nc3N3CC5(CCOCC5)C3)CCC4)cc1)CC2 [Example 139] | < 10 | 
Cc1cnc(N2CC3(CCOCC3)C2)c(C(=O)Nc2ccc(C(=O)N3CCc4c(sc(C(=O)Nc5c(F)cccc5F)c4F)-c4ccccc43)cc2)c1 [Example 93] | < 10 | 
Cc1cnc(N2CC3(CCOCC3)C2)c(C(=O)Nc2ccc(C(=O)N3CCc4cc(C(=O)Nc5c(F)cc(F)cc5F)sc4-c4ccc(F)cc43)cc2)c1 [Example 13] | < 10 | 
Cc1cnc(N2CC3(CCOCC3)C2)c(C(=O)Nc2ccc(C(=O)N3CCc4cc(-c5cccnc5)sc4-c4ccc(F)cc43)cc2)c1 [Example 167] | < 10 | 
O=C(Nc1c(F)cc(F)cc1Cl)c1cc2c(s1)-c1ccc(F)cc1N(C(=O)c1ccc(NC(=O)c3cc(C(F)F)cnc3N3CC4(CCOCC4)C3)cc1)CC2 [Example 144] | 10 to 50 | 
O=C(Nc1c(F)cc(F)cc1Cl)c1cc2c(s1)-c1ccc(F)cc1N(C(=O)c1ccc(NC(=O)c3cc4c(nc3N3CC5(CCOCC5)C3)CCC4)cc1)CC2 [Example 66] | < 10 | 
O=C(Nc1ccc(C(=O)N2CCc3cc(-c4nc5cccc(F)c5[nH]4)sc3-c3ccc(F)cc32)cc1)c1cc(F)cnc1N1CC2(CCOCC2)C1 [Example 43] | 10 to 50 | 
Cc1cnc(N2CC3(CCOCC3)C2)c(C(=O)Nc2ccc(C(=O)N3CCc4c(sc(C(=O)Nc5cccc(C(F)(F)F)n5)c4F)-c4ccccc43)cc2)c1 [Example 232] | > 50 | 
Cc1cnc(N2CC3(CCOCC3)C2)c(C(=O)Nc2ccc(C(=O)N3CCc4c(sc(-c5nc6ccccc6[nH]5)c4F)-c4ccccc43)cc2)c1 [Example 201] | < 10 | 
Cc1ccc(C(=O)Nc2ccc(C(=O)N3CCc4cc(C(=O)Nc5ccccc5F)sc4-c4ccc(F)cc43)cc2)c(N2CC3(CCOCC3)C2)n1 [Example 114] | < 10 | 
Cc1cnc(N2CC3(CCOCC3)C2)c(C(=O)Nc2ccc(C(=O)N3CCc4c(sc(C(=O)Nc5ccccc5F)c4F)-c4ccccc43)cc2)c1 [Example 205] | < 10 | 
O=C(Nc1c(F)cc(F)cc1Cl)c1cc2c(s1)-c1ccc(F)cc1N(C(=O)c1ccc(NC(=O)c3cc(-c4cccs4)cnc3N3CC4(CCOCC4)C3)cc1)CC2 [Example 28] | 10 to 50 | 
Cc1cnc(N2CC3(CCOCC3)C2)c(C(=O)Nc2ccc(C(=O)N3CCc4cc(C(=O)Nc5c(Cl)cccc5Cl)oc4-c4ccc(F)cc43)cc2)c1 [Example 236] | < 10 | 
O=C(Nc1c(F)cccc1F)c1cc2c(s1)-c1ccc(Cl)cc1N(C(=O)c1ccc(NC(=O)c3cccnc3N3CC4(CCOCC4)C3)cc1)CC2 [Example 83] | < 10 | 
Cc1ccc(C(=O)Nc2ccc(C(=O)N3CCc4c(sc(C(=O)Nc5c(F)cccc5F)c4F)-c4ccccc43)cc2)c(N2CC3(CCOCC3)C2)n1 [Example 213] | < 10 | 
Cc1ccc(C(=O)Nc2ccc(C(=O)N3CCc4cc(NC(=O)OC5CCCC5)sc4-c4ccccc43)cc2)c(N2CC3(CCOCC3)C2)n1 [Example 299] | 10 to 50 | 
Cc1cnc(N2CC3(CCOCC3)C2)c(C(=O)Nc2ccc(C(=O)N3CCc4cc(-c5nc(C)co5)sc4-c4ccc(F)cc43)cc2)c1 [Example 157] | 10 to 50 | 
O=C(Nc1c(F)cccc1Cl)c1cc2c(o1)-c1ccc(F)cc1N(C(=O)c1ccc(NC(=O)c3cc4c(nc3N3CC5(CCOCC5)C3)CCC4)cc1)CC2 [Example 240] | < 10 | 
Cc1cnc(N2CC3(CCOCC3)C2)c(C(=O)Nc2ccc(C(=O)N3CCc4cc(-c5ncns5)sc4-c4ccc(F)cc43)cc2)c1 [Example 155] | < 10 | 
Cc1cccc(C)c1NC(=O)c1cc2c(o1)-c1ccccc1N(C(=O)c1ccc(NC(=O)c3cc4c(nc3N3CC5(CCOCC5)C3)CCC4)cc1)CC2 [Example 252] | < 10 | 
O=C(Nc1c(F)cccc1F)c1cc2c(o1)-c1ccc(F)cc1N(C(=O)c1ccc(NC(=O)c3cc4c(nc3N3CC5(CCOCC5)C3)CCCC4)cc1)CC2 [Example 241] | < 10 | 
Cc1cnc(N2CC3(CCOCC3)C2)c(C(=O)Nc2ccc(C(=O)N3CCc4c(sc(NC(=O)c5c(F)cccc5F)c4F)-c4ccccc43)cc2)c1 [Example 304] | < 10 | 
O=C(Nc1c(F)cc(F)cc1Cl)c1cc2c(s1)-c1ccc(F)cc1N(C(=O)c1ccc(NC(=O)c3cc(C(F)(F)F)cnc3N3CCC4(CC3)COC4)cc1)CC2 [Example 30] | 10 to 50 | 
O=C(Nc1c(F)cccc1F)c1cc2c(s1)CCN(C(=O)c1ccc(NC(=O)c3cc4c(nc3N3CC5(CCOCC5)C3)CCC4)cc1)c1ccccc1-2 [Example 263] | 10 to 50 | 
Cc1cnc(N2CC3(CCOCC3)C2)c(C(=O)Nc2ccc(C(=O)N3CCc4cc(C(=O)Nc5ncccc5F)sc4-c4ccc(F)cc43)cc2)c1 [Example 118] | < 10 | 
Cc1ccc(C(=O)Nc2ccc(C(=O)N3CCc4c(sc(NC(=O)c5c(F)cccc5F)c4F)-c4ccccc43)cc2)c(N2CC3(CCOCC3)C2)n1 [Example 303] | 10 to 50 | 

Structure (SMILES) | EC50 [1] [nM] | EC50 (HEp-2, control compound of the RSV assay, read-out: EC50) [nM]
O=C(Nc1c(F)cccc1Cl)c1cc2c(o1)-c1ccc(F)cc1N(C(=O)c1ccc(NC(=O)c3cc4c(nc3N3CC5(CCOCC5)C3)CCCC4)cc1)CC2 [Example 238] | 10 to 50 | 
Cc1cnc(N2CC3(CCOCC3)C2)c(C(=O)Nc2ccc(C(=O)N3CCc4cc(NS(=O)(=O)c5c(F)cccc5F)sc4-c4ccccc43)cc2)c1 [Example 288] | > 50 | 
Cc1ccc(C(=O)Nc2ccc(C(=O)N3CCc4c(sc(NC(=O)c5c(C)cccc5F)c4F)-c4ccccc43)cc2)c(N2CC3(CCOCC3)C2)n1 [Example 308] | 10 to 50 | 
Cc1cnc(N2CC3(CCOCC3)C2)c(C(=O)Nc2ccc(C(=O)N3CCc4c(sc(C(=O)Nc5c(C)cccc5C)c4F)-c4ccccc43)cc2)c1 [Example 208] | < 10 | 
Cc1cnc(N2CC3(CCOCC3)C2)c(C(=O)Nc2ccc(C(=O)N3CCc4cc(C(=O)Nc5c(C)cccc5C#N)sc4-c4ccc(F)cc43)cc2)c1 [Example 11] | < 10 | 
CCn1nccc1-c1cc2c(s1)-c1ccc(F)cc1N(C(=O)c1ccc(NC(=O)c3cc(C)cnc3N3CC4(CCOCC4)C3)cc1)CC2 [Example 171] | < 10 | 
Cc1cnc(N2CC3(CCOCC3)C2)c(C(=O)Nc2ccc(C(=O)N3CCc4c(sc(C(=O)Nc5cccc(F)c5)c4F)-c4ccccc43)cc2)c1 [Example 210] | < 10 | 
Cc1cnc(N2CC3(CCOCC3)C2)c(C(=O)Nc2ccc(C(=O)N3CCc4c(sc(C(=O)Nc5ncncc5F)c4F)-c4ccccc43)cc2)c1 [Example 222] | < 10 | 
Cc1ccc(C(=O)Nc2ccc(C(=O)N3CCc4cc(C(=O)Nc5c(C)cccc5F)sc4-c4ccccc43)cc2)c(N2CC3(CCOCC3)C2)n1 [Example 276] | 10 to 50 | 
O=C(Nc1c(F)cc(F)cc1Cl)c1cc2c(s1)-c1ccc(Cl)cc1N(C(=O)c1ccc(NC(=O)c3cccnc3N3CC4(CCOCC4)C3)cc1)CC2 [Example 84] | 10 to 50 | 
O=C(Nc1ccc(C(=O)N2CCc3c(sc(C(=O)Nc4c(Cl)cccc4Cl)c3F)-c3ccccc32)cc1)c1cccnc1N1CC2(CCOCC2)C1 [Example 90] | 10 to 50 | 
Cc1cnc(N2CC3(CCOCC3)C2)c(C(=O)Nc2ccc(C(=O)N3CCc4cc(NC(=O)c5c(C)cccc5F)sc4-c4ccccc43)cc2)c1 [Example 281] | 10 to 50 | 
CCS(=O)(=O)CCN(C)c1ncccc1C(=O)Nc1ccc(C(=O)N2CCc3cc(C(=O)Nc4c(F)cccc4F)sc3-c3ccc(F)cc32)cc1 [Example 57] | > 50 | 
Cc1cnc(N2CC3(CCOCC3)C2)c(C(=O)Nc2ccc(C(=O)N3CCc4cc(-c5ncccc5F)sc4-c4ccc(F)cc43)cc2)c1 [Example 165] | < 10 | 
O=C(Nc1c(F)cccc1Cl)c1cc2c(s1)-c1ccc(F)cc1N(C(=O)c1ccc(NC(=O)c3cc(C(F)F)cnc3N3CC4(CCOCC4)C3)cc1)CC2 [Example 145] | 10 to 50 | 
Cc1cnc(N2CC3(CCOCC3)C2)c(C(=O)Nc2ccc(C(=O)N3CCc4cc(-c5nnnn5C)sc4-c4ccc(F)cc43)cc2)c1 [Example 195] | 10 to 50 | 
O=C(Nc1c(F)cccc1Cl)c1cc2c(s1)-c1ccc(F)cc1N(C(=O)c1ccc(NC(=O)c3cc4c(nc3N3CC5(CCOCC5)C3)CCOC4)cc1)CC2 [Example 137] | < 10 | 
O=C(Nc1c(F)cccc1F)c1cc2c(s1)-c1cc(F)c(F)cc1N(C(=O)c1ccc(NC(=O)c3cccnc3N3CC4(CCOCC4)C3)cc1)CC2 [Example 76] | < 10 | 
O=C(Nc1ccc(C(=O)N2CCc3cc(-c4nc5ccccc5[nH]4)sc3-c3ccc(C(F)(F)F)cc32)cc1)c1cccnc1N1CC2(CCOCC2)C1 [Example 86] | > 50 | 
O=C(Nc1ccccc1F)c1cc2c(o1)-c1ccccc1N(C(=O)c1ccc(NC(=O)c3cc4c(nc3N3CC5(CCOCC5)C3)CCC4)cc1)CC2 [Example 255] | < 10 | 
O=C(Nc1ccccc1F)N[C@H]1N=C(c2ccccc2)c2ccccc2NC1=O [RSV-604, reference compound] |  | ~2400
Cc1cnc(N2CC3(CCOCC3)C2)c(C(=O)Nc2ccc(C(=O)N3CCc4cc(-c5c[nH]c6cccnc56)sc4-c4ccc(F)cc43)cc2)c1 [Example 180] | 10 to 50 | 
O=C(Nc1c(F)cc(F)cc1F)c1cc2c(s1)-c1ccc(F)cc1N(C(=O)c1ccc(NC(=O)c3cccnc3N3CC4(CCOCC4)C3)cc1)CC2 [Example 22] | < 10 | 
O=C(Nc1c(F)cccc1C(F)(F)F)c1cc2c(o1)-c1ccccc1N(C(=O)c1ccc(NC(=O)c3cc4c(nc3N3CC5(CCOCC5)C3)CCC4)cc1)CC2 [Example 248] | < 10 | 
O=C(Nc1ccc(C(=O)N2CCc3c(sc(C(=O)Nc4c(F)cccc4F)c3F)-c3ccccc32)cc1)c1cccnc1N1CC2(CCOCC2)C1 [Example 88] | < 10 | 
O=C(Nc1c(F)cccc1F)c1cc2c(o1)-c1ccc(F)cc1N(C(=O)c1ccc(NC(=O)c3cc4c(nc3N3CC5(CCOCC5)C3)CCC4)cc1)CC2 [Example 239] | < 10 | 
O=C(Nc1c(F)cccc1F)c1cc2c(s1)-c1c(cc(F)c(F)c1F)N(C(=O)c1ccc(NC(=O)c3cccnc3N3CC4(CCOCC4)C3)cc1)CC2 [Example 78] | < 10 | 
